Reference: patent publication US20100041760A1, “MONOARYL AMINOTETRALINES” (priority 2008, published 2010)

target: T1, human CRTH2 (Homo sapiens, UniProt Q9Y5Y4); test: Calcium Flux Assay Using Fluorometric Imaging Plate Reader (FLIPR); format: cell-based; design: expressed in transfected cells; host or cells: CHO-K1 previously transfected with G-alpha 16; conditions: CHO-K1 cells with G-alpha 16 and human CRTH2; inhibition of ligand (DK-PGD2) response; read-out: IC50 value in FLIPR calcium flux assay
T1 sequence (Q9Y5Y4 1-395): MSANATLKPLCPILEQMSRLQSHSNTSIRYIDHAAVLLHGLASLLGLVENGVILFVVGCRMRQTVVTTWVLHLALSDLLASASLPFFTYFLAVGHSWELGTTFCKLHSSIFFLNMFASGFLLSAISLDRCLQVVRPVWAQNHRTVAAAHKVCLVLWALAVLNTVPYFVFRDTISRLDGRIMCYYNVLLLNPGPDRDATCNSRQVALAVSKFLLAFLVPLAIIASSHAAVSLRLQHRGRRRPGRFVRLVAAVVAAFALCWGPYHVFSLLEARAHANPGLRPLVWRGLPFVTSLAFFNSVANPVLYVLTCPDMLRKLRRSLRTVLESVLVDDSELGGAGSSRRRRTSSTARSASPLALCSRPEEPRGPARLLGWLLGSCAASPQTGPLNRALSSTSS
Experimental: CHO-K1 cells previously transfected with G-alpha 16 were subsequently transfected with the human CRTH2 receptor and the neomycin resistance gene. Following selection in 800 μg/mL G418 (geneticin), individual clones were assayed for their receptor expression based on staining with an anti human CRTH2 IgG, followed by assaying for their response to 13,14-dihydro-15-keto Prostaglandin D2 (DK-PDG2) (ligand) in the Ca^2+ Flux assay. Positive clones were then cloned by limiting dilution cloning. The transfected cells were cultured in Ham's F-12 medium supplemented with 10% fetal bovine serum, 2 mM glutamine, 100 U/mL penicillin/100 μg/mL streptomycin, 200 μg/mL hygromycin B, and 800 μg/mL G418 (geneticin). Cells were harvested with trypsin-EDTA (trypsin-ethylenediaminetetraacetic acid) and counted using ViaCount® reagent (from Guava Technologies, Inc. which contains two DNA-binding dyes that enable the reagent user to distinguish between viable and non-viable cells). The cell suspension volume was adjusted to 2.5×10^5 cells /mL with complete growth media. Aliquots of 50 μL were dispensed into BD Falcon™ 384 well black/clear microplates (from BD Biosciences, a division of Becton, Dickinson and Company) and the microplates were placed in a 37° C. CO2 incubator overnight. The following day, the microplates were used in the assay.
Loading Buffer containing dye (from the FLIPR® Calcium 3 Assay Kit from Molecular Devices, a division of MDS Analytical Technologies and MDS Inc.) was prepared by dissolving the contents of one bottle into 200 mL Hank's Balanced Salt Solution containing 20 mM HEPES (4-(2-hydroxyethyl)-1-piperazineethanesulfonic acid) and 2.5 mM probenecid. Growth media was removed from the cell plates and 25 μL of Hank's Balanced Salt Solution (HBSS) containing 20 mM HEPES, 0.05% BSA and 2.5 mM probenecid was added to each well followed by 25 μL of diluted dye using a Multidrop dispenser. The plates were then incubated for 1 hour at 37° C.
During the incubation, test compound plates were prepared by adding 90 μL of HBSS/20 mM HEPES/0.005% BSA buffer to the 2 μL of serial diluted compounds. To prepare serial diluted compounds, 20 mM stocks of compounds were dissolved in 100% DMSO. The compound dilution plate was set up as follows: well #1 received 5 μL of compound plus 10 μL of DMSO. Wells 2-10 received 10 μL of DMSO. 5 μL was mixed and transferred from well #1 into well #2. 1:3 serial dilutions were continued out 10 steps. 2 μL of diluted compound was transferred into duplicate wells of a 384 well “assay plate” and then 90 μL of buffer was added.
After incubation, both the cell and “assay plate” plates were brought to the fluorometric imaging plate reader (FLIPR®) and 20 μL of the diluted compounds were transferred to the cell plates by the FLIPR®. Plates were then incubated for 1 hour at room temperature. After the 1 hour incubation, plates were returned to the FLIPR® and 20 μL of 4.5× concentrated ligand was added to the cell plates. During the assay, fluorescence readings were taken simultaneously from all 384 wells of the cell plate every 1.5 seconds. Five readings were taken to establish a stable baseline, then 20 μL of sample was rapidly (30 μL/sec) and simultaneously added to each well of the cell plate. The fluorescence was continuously monitored before, during and after sample addition for a total elapsed time of 100 seconds. Responses (increase in peak fluorescence) in each well following agonist addition were determined. The initial fluorescence reading from each well, prior to ligand stimulation, was used as a zero baseline value for the data from that well. The responses were expressed as % inhibition of the buffer control. […]

IC50	SMILES
462 nM	CN([C@@H]1CCCc2c(OCC(=O)O)cccc21)S(=O)(=O)c1cc(OC2CCCC2)cc(C(F)(F)F)c1 [Example 9-3, {(R)-5-[(3-cyclopentyloxy-5-trifluoromethyl-benzenesulfonyl)-methyl-amino]-5,6,7,8-tetrahydro-naphthalen-1-yloxy}-acetic acid]
1770 nM	CN([C@@H]1CCCc2c(OCC(=O)O)cccc21)S(=O)(=O)c1cc(F)cc(C(F)(F)F)c1 [Example 1-1, {(R)-5-[(3-fluoro-5-trifluoromethyl-benzenesulfonyl)-methyl-amino]-5,6,7,8-tetrahydro-naphthalen-1-yloxy}-acetic acid]
94 nM	O=C(O)COc1cccc2c1CCC[C@H]2NS(=O)(=O)c1cc(F)cc(F)c1 [Example 10-5, [(R)-5-(3,5-difluoro-benzenesulfonylamino)-5,6,7,8-tetrahydro-naphthalen-1-yloxy]-acetic acid]
313 nM	O=C(O)COc1cccc2c1CCC[C@H]2NS(=O)(=O)c1cc(F)cc(C(F)(F)F)c1 [Example 10-12, [(R)-5-(3-fluoro-5-trifluoromethyl-benzenesulfonylamino)-5,6,7,8-tetrahydro-naphthalen-1-yloxy]-acetic acid]
2010 nM	CCN(CC)c1cc(C(F)(F)F)cc(S(=O)(=O)N(C)[C@@H]2CCCc3c(OCC(=O)O)cccc32)c1 [Example 4-2, {(R)-5-[(3-diethylamino-5-trifluoromethyl-benzenesulfonyl)-methyl-amino]-5,6,7,8-tetrahydro-naphthalen-1-yloxy}-acetic acid]

same assay, conditions: CHO-K1 cells with G-alpha 16 and human CRTH2; unit inferred; read-out: IC50 value in FLIPR calcium flux assay (unit inferred)

IC50	SMILES
~3000 nM	O=C(O)COc1cccc2c1CCC[C@H]2NS(=O)(=O)c1cc(Cl)cc(Cl)c1 [Example 10-1, [(R)-5-(3,5-dichloro-benzenesulfonylamino)-5,6,7,8-tetrahydro-naphthalen-1-yloxy]-acetic acid]
